Where a name gives a salt, the structure may show the parent alone.

This test addresses human KDR protein in HEK-293 cells (Homo sapiens (Human), UniProt P35968). Nature of the test: KDR Cell Assay (phospho-KDR in HEK-293 cells expressing inducible KDR). The following applies: pKDR Cell HEK 10% FBS IC50, HEK-293 cells expressing inducible KDR, VEGF stimulated. In kind it is cell-based. Summed up:
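HEK-293 cells with inducible human KDR were treated with compound for 1 h in DMEM (0.25% DMSO final), then lysed. Phospho-KDR was quantified by Meso Scale immunoassay, expressed as percent of control, and IC50 taken where a 4-parameter logistic fit crossed 50 POC.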

human KDR protein in HEK-293 cells, sequence (P35968 20-1356): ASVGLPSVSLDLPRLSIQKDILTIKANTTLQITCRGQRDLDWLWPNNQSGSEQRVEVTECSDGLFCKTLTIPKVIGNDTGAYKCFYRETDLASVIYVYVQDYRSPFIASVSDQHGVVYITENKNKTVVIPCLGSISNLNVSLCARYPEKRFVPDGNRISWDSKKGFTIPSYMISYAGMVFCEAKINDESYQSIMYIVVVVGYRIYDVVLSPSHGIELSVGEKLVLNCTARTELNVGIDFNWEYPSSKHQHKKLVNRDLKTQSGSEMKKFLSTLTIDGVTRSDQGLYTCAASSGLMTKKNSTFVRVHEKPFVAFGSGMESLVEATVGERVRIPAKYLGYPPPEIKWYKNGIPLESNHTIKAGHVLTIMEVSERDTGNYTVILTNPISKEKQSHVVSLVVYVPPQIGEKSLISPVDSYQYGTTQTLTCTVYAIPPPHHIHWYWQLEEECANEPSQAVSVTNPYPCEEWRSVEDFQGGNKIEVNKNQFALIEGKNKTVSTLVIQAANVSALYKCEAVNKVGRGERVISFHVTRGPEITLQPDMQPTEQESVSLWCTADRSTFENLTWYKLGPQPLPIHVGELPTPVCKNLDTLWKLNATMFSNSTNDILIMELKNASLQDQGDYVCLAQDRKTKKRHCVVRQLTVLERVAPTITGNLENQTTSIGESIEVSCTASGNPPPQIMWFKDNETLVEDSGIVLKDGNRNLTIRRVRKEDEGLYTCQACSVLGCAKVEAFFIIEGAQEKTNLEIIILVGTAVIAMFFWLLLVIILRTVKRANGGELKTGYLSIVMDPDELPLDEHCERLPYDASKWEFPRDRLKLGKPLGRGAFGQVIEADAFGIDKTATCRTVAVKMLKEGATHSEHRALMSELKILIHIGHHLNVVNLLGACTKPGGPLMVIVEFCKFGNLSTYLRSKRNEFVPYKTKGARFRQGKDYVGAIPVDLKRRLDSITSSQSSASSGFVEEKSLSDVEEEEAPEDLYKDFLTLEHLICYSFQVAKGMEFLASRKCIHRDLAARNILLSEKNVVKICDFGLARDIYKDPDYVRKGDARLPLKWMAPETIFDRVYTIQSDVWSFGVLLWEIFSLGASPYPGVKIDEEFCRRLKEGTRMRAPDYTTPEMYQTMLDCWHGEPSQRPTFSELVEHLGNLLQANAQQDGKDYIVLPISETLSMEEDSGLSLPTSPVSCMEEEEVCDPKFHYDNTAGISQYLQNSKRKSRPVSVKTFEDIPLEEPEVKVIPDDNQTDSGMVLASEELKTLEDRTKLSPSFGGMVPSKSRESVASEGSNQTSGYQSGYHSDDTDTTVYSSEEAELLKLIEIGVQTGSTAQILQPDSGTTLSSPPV

In turn, `CN(C(=O)N1CCN(c2ccc(-c3cc(-c4cnn(C)c4)cn4ncc(C#N)c34)cn2)CC1)C1CC1` [Example 386, 4-(5-(3-cyano-6-(1-methyl-1H-pyrazol-4-yl)pyrazolo[1,5-a]pyridine-4-yl)pyridin-2-yl)-N-cyclopropyl-N-methylpiperazine-1-carboxamide 2,2,2-trifluoroacetate] yielded an IC50 of 1410 nM. This lies in the single-digit micromolar range.

The molecule `Cn1cc(-c2cc(-c3ccc(N4CCN(C(=O)N5CCC(C6CC6)C5)CC4)nc3)c3c(C#N)cnn3c2)cn1` (stereo not shown) [Example 388, 4-(6-(4-(3-cyclopropylpyrrolidine-1-carbonyl)piperazin-1-yl)pyridin-3-yl)-6-(1-methyl-1H-pyrazol-4-yl)pyrazolo[1,5-a]pyridine-3-carbonitrile] returned a 50% inhibitory concentration (IC50) of 346 nM.

In the case of `CCC1CCN(C(=O)N2CCN(c3ccc(-c4cc(-c5cnn(C)c5)cn5ncc(C#N)c45)cn3)CC2)C1` (stereo not shown) [Example 389, 4-(6-(4-(3-ethylpyrrolidine-1-carbonyl)piperazin-1-yl)pyridin-3-yl)-6-(1-methyl-1H-pyrazol-4-yl)pyrazolo[1,5-a]pyridine-3-carbonitrile], inhibition was half-maximal at 857 nM (IC50).

For the molecule `CC(C)C1CCN(C(=O)N2CCN(c3ccc(-c4cc(-c5cnn(C)c5)cn5ncc(C#N)c45)cn3)CC2)C1` (stereo not shown) [Example 390, 4-(6-(4-(3-isopropylpyrrolidine-1-carbonyl)piperazin-1-yl)pyridin-3-yl)-6-(1-methyl-1H-pyrazol-4-yl)pyrazolo[1,5-a]pyridine-3-carbonitrile], the IC50 was 951 nM.

With `Cn1cc(-c2cc(-c3ccc(N4CCN(C(=O)N5CCC(C(F)(F)F)C5)CC4)nc3)c3c(C#N)cnn3c2)cn1` (stereo not shown) [Example 391, 6-(1-methyl-1H-pyrazol-4-yl)-4-(6-(4-(3-(trifluoromethyl)pyrrolidine-1-carbonyl)piperazin-1-yl)pyridin-3-yl)pyrazolo[1,5-a]pyridine-3-carbonitrile], 986 nM corresponded to half-maximal inhibition (IC50).

The molecule `Cn1cc(-c2cc(-c3ccc(N4CCN(CC5CC5)CC4)nc3)c3c(C#N)cnn3c2)cn1` [Example 394, 4-(6-(4-(cyclopropylmethyl)piperazin-1-yl)pyridin-3-yl)-6-(1-methyl-1H-pyrazol-4-yl)pyrazolo[1,5-a]pyridine-3-carbonitrile] came in with an IC50 of 453 nM.

In turn, `Cn1cc(-c2cc(-c3ccc(N4CCN(CCc5ccccn5)CC4)nc3)c3c(C#N)cnn3c2)cn1` [Example 395, 6-(1-methyl-1H-pyrazol-4-yl)-4-(6-(4-(2-(pyridine-2-yl)ethyl)piperazin-1-yl)pyridin-3-yl)pyrazolo[1,5-a]pyridine-3-carbonitrile] yielded a half-inhibitory concentration (IC50) of 490 nM.

In turn, `COCCN1CCN(c2ccc(-c3cc(-c4cnn(C)c4)cn4ncc(C#N)c34)cn2)CC1` [Example 396, 4-(6-(4-(2-methoxyethyl)piperazin-1-yl)pyridin-3-yl)-6-(1-methyl-1H-pyrazol-4-yl)pyrazolo[1,5-a]pyridine-3-carbonitrile] yielded an IC50 of 1460 nM. This IC50 lies about 3-fold higher than the previous one.

`CCOCCN1CCN(c2ccc(-c3cc(-c4cnn(C)c4)cn4ncc(C#N)c34)cn2)CC1` [Example 397, 4-(6-(4-(2-ethoxyethyl)piperazin-1-yl)pyridin-3-yl)-6-(1-methyl-1H-pyrazol-4-yl)pyrazolo[1,5-a]pyridine-3-carbonitrile] showed a concentration for half-maximal inhibition (IC50) of 1500 nM.

The molecule `Cc1cc(C)nc(CN2CCN(c3ccc(-c4cc(-c5cnn(C)c5)cn5ncc(C#N)c45)cn3)CC2)n1` [Example 401, 4-(6-(4-((4,6-dimethylpyrimidin-2-yl)methyl)piperazin-1-yl)pyridin-3-yl)-6-(1-methyl-1H-pyrazol-4-yl)pyrazolo[1,5-a]pyridine-3-carbonitrile] had an IC50 of 692 nM.

Consider `Cn1cc(-c2cc(-c3ccc(N4CCN(CCOC5CC5)CC4)nc3)c3c(C#N)cnn3c2)cn1` [Example 407, 4-(6-(4-(2-cyclopropoxyethyl)piperazin-1-yl)pyridin-3-yl)-6-(1-methyl-1H-pyrazol-4-yl)pyrazolo[1,5-a]pyridine-3-carbonitrile], for which 828 nM corresponded to half-maximal inhibition (IC50).

In turn, `CCCN1CCN(c2ccc(-c3cc(-c4cnn(C)c4)cn4ncc(C#N)c34)cn2)CC1` [Example 408, 6-(1-methyl-1H-pyrazol-4-yl)-4-(6-(4-propylpiperazin-1-yl)pyridin-3-yl)pyrazolo[1,5-a]pyridine-3-carbonitrile] gave an IC50 of 1300 nM. Compared with the last molecule, the IC50 is about 1.6-fold higher.

In turn, `CCN1CCN(c2ccc(-c3cc(-c4cnn(C)c4)cn4ncc(C#N)c34)cn2)CC1` [Example 409, 4-(6-(4-ethylpiperazin-1-yl)pyridin-3-yl)-6-(1-methyl-1H-pyrazol-4-yl)pyrazolo[1,5-a]pyridine-3-carbonitrile] yielded an IC50 of 1670 nM.

`CC(C)N1CCN(c2ccc(-c3cc(-c4cnn(C)c4)cn4ncc(C#N)c34)cn2)CC1` [Example 410, 4-(6-(4-isopropylpiperazin-1-yl)pyridin-3-yl)-6-(1-methyl-1H-pyrazol-4-yl)pyrazolo[1,5-a]pyridine-3-carbonitrile] showed an IC50 of 1630 nM.

In turn, `Cn1cc(-c2cc(-c3ccc(N4CCN(CCc5ccccc5)CC4)nc3)c3c(C#N)cnn3c2)cn1` [Example 411, 6-(1-methyl-1H-pyrazol-4-yl)-4-(6-(4-phenethylpiperazin-1-yl)pyridin-3-yl)pyrazolo[1,5-a]pyridine-3-carbonitrile] yielded an IC50 of 263 nM.

Molecule `Cn1cc(-c2cc(-c3ccc(N4CCN(CC(F)F)CC4)nc3)c3c(C#N)cnn3c2)cn1` [Example 418, 4-(6-(4-(2,2-difluoroethyl)piperazin-1-yl)pyridin-3-yl)-6-(1-methyl-1H-pyrazol-4-yl)pyrazolo[1,5-a]pyridine-3-carbonitrile] gave an IC50 of 1510 nM.

In the case of `Cn1cc(-c2cc(-c3ccc(N4CCN(CC(F)(F)F)CC4)nc3)c3c(C#N)cnn3c2)cn1` [Example 419, 6-(1-methyl-1H-pyrazol-4-yl)-4-(6-(4-(2,2,2-trifluoroethyl)piperazin-1-yl)pyridin-3-yl)pyrazolo[1,5-a]pyridine-3-carbonitrile], half-maximal inhibition (IC50) required 1900 nM.

In the case of `C[C@H](c1ccccc1)N1CCN(c2ccc(-c3cc(-c4cnn(C)c4)cn4ncc(C#N)c34)cn2)CC1` [Example 421, (R)-6-(1-methyl-1H-pyrazol-4-yl)-4-(6-(4-(1-phenylethyl)piperazin-1-yl)pyridin-3-yl)pyrazolo[1,5-a]pyridine-3-carbonitrile dihydrochloride], the IC50 came to 1620 nM.

`C[C@@H](c1ccccc1)N1CCN(c2ccc(-c3cc(-c4cnn(C)c4)cn4ncc(C#N)c34)cn2)CC1` [Example 422, (S)-6-(1-methyl-1H-pyrazol-4-yl)-4-(6-(4-(1-phenylethyl)piperazin-1-yl)pyridine-3-yl)pyrazolo[1,5-a]pyridine-3-carbonitrile dihydrochloride] yielded an IC50 of 942 nM.

Turning to `Cn1cc(-c2cc(-c3ccc(N4CCN(Cc5cncc(F)c5)CC4)nc3)c3c(C#N)cnn3c2)cn1` [Example 423, 4-(6-(4-((5-fluoropyridin-3-yl)methyl)piperazin-1-yl)pyridin-3-yl)-6-(1-methyl-1H-pyrazol-4-yl)pyrazolo[1,5-a]pyridine-3-carbonitrile], the IC50 was 1370 nM.

In turn, `Cn1cc(-c2cc(-c3ccc(N4CCN(Cc5ccc(F)cc5)CC4)nc3)c3c(C#N)cnn3c2)cn1` [Example 424, 4-(6-(4-(4-fluorobenzyl)piperazin-1-yl)pyridin-3-yl)-6-(1-methyl-1H-pyrazol-4-yl)pyrazolo[1,5-a]pyridine-3-carbonitrile] registered a 50% inhibitory concentration (IC50) of 630 nM.

`Cn1cc(-c2cc(-c3ccc(N4CCN(Cc5ccc(Cl)cc5)CC4)nc3)c3c(C#N)cnn3c2)cn1` [Example 425, 4-(6-(4-(4-chlorobenzyl)piperazin-l-yl)pyridin-3-yl)-6-(1-methyl-1H-pyrazol-4-yl)pyrazolo[1,5-a]pyridine-3-carbonitrile] gave an IC50 of 916 nM.

`Cn1cc(-c2cc(-c3ccc(N4CCN(Cc5ccc(F)cc5F)CC4)nc3)c3c(C#N)cnn3c2)cn1` [Example 426, 4-(6-(4-(2,4-difluorobenzyl)piperazin-1-yl)pyridin-3-yl)-6-(1-methyl-1H-pyrazol-4-yl)pyrazolo[1,5-a]pyridine-3-carbonitrile] showed an IC50 of 1250 nM.

For `Cn1cc(-c2cc(-c3ccc(N4CCN(Cc5ccccc5F)CC4)nc3)c3c(C#N)cnn3c2)cn1` [Example 427, 4-(6-(4-(2-fluorobenzyl)piperazin-1-yl)pyridin-3-yl)-6-(1-methyl-1H-pyrazol-4-yl)pyrazolo[1,5-a]pyridine-3-carbonitrile], the IC50 came to 937 nM.

Consider `Cn1cc(-c2cc(-c3ccc(N4CCN(Cc5cccc(F)c5)CC4)nc3)c3c(C#N)cnn3c2)cn1` [Example 428, 4-(6-(4-(3-fluorobenzyl)piperazin-1-yl)pyridin-3-yl)-6-(1-methyl-1H-pyrazol-4-yl)pyrazolo[1,5-a]pyridine-3-carbonitrile], for which it took 880 nM to reach half-maximal inhibition (IC50).

Turning to `Cn1cc(-c2cc(-c3ccc(N4CCN(Cc5cc(F)ccc5F)CC4)nc3)c3c(C#N)cnn3c2)cn1` [Example 429, 4-(6-(4-(2,5-difluorobenzyl)piperazin-1-yl)pyridin-3-yl)-6-(1-methyl-1H-pyrazol-4-yl)pyrazolo[1,5-a]pyridine-3-carbonitrile], the half-maximal inhibitory concentration (IC50) was 1560 nM.

For the molecule `Cn1cc(-c2cc(-c3ccc(N4CCN(Cc5cncc(Cl)c5)CC4)nc3)c3c(C#N)cnn3c2)cn1` [Example 430, 4-(6-(4-((5-chloropyridin-3-yl)methyl)piperazin-1-yl)pyridin-3-yl)-6-(1-methyl-1H-pyrazol-4-yl)pyrazolo[1,5-a]pyridine-3-carbonitrile], the IC50 worked out at 791 nM.

`Cc1cncc(CN2CCN(c3ccc(-c4cc(-c5cnn(C)c5)cn5ncc(C#N)c45)cn3)CC2)n1` [Example 431, 6-(1-methyl-1H-pyrazol-4-yl)-4-(6-(4-((6-methylpyrazin-2-yl)methyl)piperazin-l-yl)pyridin-3-yl)pyrazolo[1,5-a]pyridine-3-carbonitrile] registered an IC50 of 1500 nM. This IC50 lies about 1.9-fold higher than the previous one.

Broadly, the IC50 is the point on the concentration scale where inhibition reaches its midpoint. A lower IC50 goes with greater potency.

These data come from patent publication US10023570B2 (Array BioPharma, Inc., priority 2015, dated 2018).
